Values quoted from earlier work as cited in patent US11304968B2, “Pharmaceutical compositions comprising a hydroxyethylquercetin glucuronide” (JANSSEN PHARMACEUTICA NV, priority 2018, dated 2022).
One block for each compound: values may come before it.

Tests used:
[1] = humans, oral; baicalin 616 mg with baicalein 52.5 mg; wogonoside 117.2 mg with wogonin 32 mg
[2] = rat
[3] = test system: anxiety and depressive behaviors in the offspring; settings: pregnant rats fed a high fat diet
cortisol levels = settings: depressed, stressed rats
[4] = human, in vivo, po
[5] = rat, in vivo, po
cortisol response = settings: in vitro
[6] = not given; remark: listed apart in the source

Compound: O=C(O)[C@H]1O[C@@H](Oc2cc3oc(-c4ccccc4)cc(=O)c3c(O)c2O)[C@H](O)[C@@H](O)[C@@H]1O [baicalin]
urinary COV of metabolites [1]: about 10% | solubility in water: poorly soluble in water | site of absorption [2]: preferentially absorbs in the rat stomach

Compound: C[C@@H]1O[C@@H](OC[C@H]2O[C@@H](Oc3c(-c4ccc(OCCO)c(OCCO)c4)oc4cc(OCCO)cc(O)c4c3=O)[C@H](O)[C@@H](O)[C@@H]2O)[C@H](O)[C@H](O)[C@H]1O [troxerutin, 7,3′,4′-trihydroxyethylrutoside]
anxiety and depressive behaviors in the offspring [3]: reduced anxiety and depressive behaviors in the offspring | effect on cortisol levels (cortisol levels): decreased cortisol levels

volunteers in whom the metabolite was detectable [4]: 13 of the 16 | detectability as metabolite [5]: not detectable
Compound: mono-3′-O-hydroxyethyl quercetin-glucuronide [Mono-3′-O-HEQG]

Compound: C[C@@H]1O[C@@H](OC[C@H]2O[C@@H](Oc3c(-c4ccc(O)c(O)c4)oc4cc(OCCO)cc(O)c4c3=O)[C@H](O)[C@@H](O)[C@@H]2O)[C@H](O)[C@H](O)[C@H]1O [MonoHER, 7-monohydroxyethylrutoside]
effect on cortisol response and cortisol resistance (cortisol response): protects the proper cortisol response and decreases cortisol resistance

Compound: O=C(O)[C@H]1O[C@@H](Oc2cc3oc(-c4ccc(O)cc4)cc(=O)c3c(O)c2O)[C@H](O)[C@@H](O)[C@@H]1O [scutellarin]
pKa [6]: about 2.7 | solubility in water: poorly soluble in water
